{
  "source": "paper PMC8906060",
  "about": "(Antiviral Research, 2022)",
  "key": {"SARS-CoV-2 3CLpro": {"molecular_target": "SARS-CoV-2 3CLpro (Severe acute respiratory syndrome coronavirus 2, UniProt P0DTD1)", "format": "biochemical", "settings": "read-out: 3CLpro IC50"}, "3CLpro": {"molecular_target": "3CLpro (Severe acute respiratory syndrome coronavirus 2, UniProt P0DTD1)", "format": "biochemical, SARS-CoV-2"}, "COVID-19": {"system": "COVID-19", "settings": "COVID-19 patients, ref Beigel et al., 2020, cited from earlier work"}, "SARS-CoV-2": {"system": "SARS-CoV-2", "experiment": "microbe, parasite or virus in culture", "format": "cell-based", "settings": "Severe acute respiratory syndrome coronavirus 2"}},
  "data": [
    {"smiles": "COC(=O)c1c(C)[nH]c(C(=O)COn2nnc3ccc(S(=O)(=O)N(C)C)cc32)c1C", "note": "[Compound 12]", "values": [
      {"measurement": "IC50", "setting": "SARS-CoV-2 3CLpro", "result": 1320, "unit": "nM"},
      {"measurement": "IC50", "setting": "3CLpro; read-out: FRET IC50", "result": 350, "unit": "nM"}
    ]},
    {"smiles": "COc1ccc(-c2nc(NC(=O)c3ccc(C)c(F)c3)n[nH]2)cc1OC", "note": "[Compound 30]", "values": [
      {"measurement": "FRET IC50", "setting": "3CLpro", "result": "high fluorescent signals"}
    ]},
    {"smiles": "CCC(CC)COC(=O)[C@H](C)N[P@](=O)(OC[C@H]1O[C@@](C#N)(c2ccc3c(N)ncnn23)[C@H](O)[C@@H]1O)Oc1ccccc1", "note": "[Remdesivir]", "values": [
      {"measurement": "recovery", "setting": "COVID-19; reduced from 15 days", "result": 11, "unit": "days"},
      {"measurement": "effect on mortality", "setting": "COVID-19", "result": "no significant effect"},
      {"measurement": "EC50", "setting": "SARS-CoV-2", "result": 1840, "unit": "nM"}
    ]}
  ]
}
